≈ marks a conversion by molar mass, not a printed value. Like-named read-outs stand apart in the source and are kept apart here.
How the values were obtained:
rats = assay: Prolonged subacute toxicity in rats; assay type: in vivo, rat; settings: p.o.
Protocol: (§1) In a study of prolonged subacute toxicity of Miconazole in rats, among other effects, significant hepatomegalias in females with a dosage of under 30 mg/kg p.o. and in males with a dosage of under 60 mg/kg p.o. were observed.

Torulopsis glabrata = assay: MIC by two-fold dilution, Torulopsis glabrata; assay type: cell-based; settings: Nakaseomyces glabratus; 10 strains; read-out: Minimum Inhibitory Concentration
Protocol: (§2) Minimum Inhibitory Concentrations (MICS) of Sertaconazole and Miconazole against 107 yeasts, 47 dermatophytes and 4 fungi were determined by a two-fold dilution method.

[1] = Acute toxicity (LD50) in mouse, three administration routes; settings: in vivo
Text: (§3) A number of compounds with antimycotic and/or fungicidal properties, which are useful in pharmaceutical compositions, are currently known. These include the commercially successful Miconazole having the formula II [drawing 2] Miconazole has a structure chemically similar to the 1H-imidazole derivative compounds of the invention. Miconazole is effective against a number of yeasts, dermatophytes and fungi. This effectiveness can be measured by culturing these microorganisms in vitro and applying a preparation containing the antimycotic compound, Miconazole. The results of this type of in vitro experiment is expressed in terms of the Minimum Inhibitory Concentration (MIC), i.e. the minimum concentration which inhibits the growth of the microorganism. For example, the MIC for Miconazole against a particular Candida albicans strain is found to be 10.7 micrograms/milliliter. The effectiveness of Miconazole as an antimycotic compound is measured in vivo by applying a suspension containing the drug to the skin of a number of animals and measuring the proportion of animals on which growth of the microorganism is inhibited as a function of time. Typically, after 25 days, about 1/4 of the animals were cured, when treated with a cream containing 2 % by weight Miconazole. Of course, any pharmaceutical preparation for treating a disease in a human must satisfy certain toxicity requirements. […] Toxicity tests have been performed on the IH-imidazole derivative compounds of the invention and on Miconazole and other known compounds having antimycotic properties. In toxicity tests the LD50 (the dose at which 50 % mortality occurs) is measured.
(§4) Toxicity of Sertaconazole, Microazole and Martin's compounds 1, 2 and 3, as shown below, has been tested by standard methods. Both acute toxicity, subacute toxicity and chronic toxicity were studied
(§5) Oral, intraperitoneal and subcutaneous acute toxicity of sertaconazole and miconazole have been investigated. LD50 in mouse and rat, male and female, were measured.

[2] = Acute toxicity (LD50) in rat, three administration routes; settings: in vivo, males
Protocol: as §4, §5

Candida albicans [3] = assay: MIC by two-fold dilution, Candida albicans; assay type: cell-based
Text: as §3, §2

Candida tropicalis = assay: MIC by two-fold dilution, Candida tropicalis; assay type: cell-based; settings: read-out: Minimum Inhibitory Concentration
Protocol: as §2

cutaneous mycosis = assay: Randomized double blind clinical trials, cutaneous mycosis; settings: 2 % cream (nitrate salts)
Protocol: (§6) Human clinical trials were performed with Sertaconazole nitrate and Miconazole nitrate acid addition salts. Randomized double blind trials were carried out with 502 patients suffering from cutaneous mycosis as confirmed by microscopic examination and microbiological culture. 247 patients were treated with 2 % Sertaconazole cream and the remaining 255 patients were treated with 2 % Miconazole cream. All patients received scheduled treatment for 28 days and were followed up for an additional 28 days for possible relapses.

Chronic toxicity in rats = assay type: in vivo, rat; settings: rat, in vivo; 100 mg/kg or more dosage
Candida albicans [4] = assay: Vaginal infection by Candida albicans in female mice; assay type: in vivo; settings: seven days after infection
Text: Besides the above in vivo experiments vaginal infection by Candida albicans was studied in female mice. Standard methods were used. […] Similar results were found in experiments where repeated dosages of active compound were used after infection. These in vivo results confirmed the surprising speed of action of Sertaconazole in comparison to the prior art compounds.

[5] = tested on: Scopulariopsis brevi-caulis; assay: MIC by two-fold dilution, Scopulariopsis brevicaulis; assay type: cell-based; settings: Scopulariopsis; 4 strains; read-out: Minimum Inhibitory Concentration
Protocol: as §2

Dermatophytes, Others = assay: MIC by two-fold dilution, other dermatophytes; assay type: cell-based; settings: 3 strains; read-out: Minimum Inhibitory Concentration
Protocol: as §2

[6] = tested on: Trichophyton mcntagrophytes; assay: Dermal infection in albino female guinea pigs by Trichophyton mentagrophytes; assay type: in vivo, guinea pig; settings: for % microbiological healing / Negative Cultures to Total Cultures: 2% cream
Text: as §3
Dermal infection in albino female guinea pigs by Trichophyton mcntagrophytes has been studied. Animals were distributed in three groups: a) a control group of infected untreated animals; b) a scrtaconazole group of infected and treated animals; and c) a miconazole group of infected and treated animals. Animals were depleted and a 0.4 ml suspension of the microorganism was applied on the depleted area. Treatment with each of the test drugs was made by application of 1 g of 2% cream on the depleted area on the 4th, 5th and 6th day after infection.

Trichophyton rubrum = assay: Randomized double blind clinical trials, Trichophyton rubrum infection; assay type: in vivo, human; settings: 2 % cream (nitrate salts), 28 days treatment
Protocol: as §6

Trichophyton rubrus = assay: MIC by two-fold dilution, Trichophyton rubrus; assay type: cell-based; settings: 10 strains, read-out: Minimum Inhibitory Concentration
Protocol: as §2

Candida s.p. = assay: MIC by two-fold dilution, Candida s.p.; assay type: cell-based; settings: Candida; 15 strains; read-out: Minimum Inhibitory Concentration
Protocol: as §2

Gram-positive germs = assay: MIC by two-fold dilution, Gram-positive germs; assay type: cell-based; settings: 21 strains; read-out: Minimum Inhibitory Concentration
Microsporum canis = assay: MIC by two-fold dilution, Microsporum canis; assay type: cell-based; settings: 4 strains, read-out: Minimum Inhibitory Concentration
Protocol: as §2

[7] = Safe dosage based on the toxicity findings; settings: rat, in vivo
Protocol: as §1
Based on these finds a safe dosage for Miconazole is about 10 mg/kg, while a safe dosage for Sertaconzole is about 150 mg/kg, i.e about 15 times higher.

[8] = tested on: Trichophyton menta-grophytes; assay: MIC by two-fold dilution, Trichophyton mentagrophytes; assay type: cell-based; settings: 30 strains, read-out: Minimum Inhibitory Concentration
Protocol: as §2

[9] = Acute toxicity in Swiss mice i.p.; settings: mouse, in vivo, ip
Text: Such signs included convulsions and Straub tail(vertical righting of the tail).

C. albicans 14 = assay: MIC, comparative in vitro testing against Martin compounds; assay type: cell-based; settings: Candida albicans, 14, 48 h, Casitone medium, reading time 48 h; SZ vs M4
Protocol: (§7) Minimum Inhibitory Concentrations (MICS) of Sertaconazole were also measured in comparison to four of the compounds described in the Martin Patent, including a compound, referred to herein as Martin Compound 1, which has the same structure as Sertaconazole, expect that the sulfur in the benzothiophene ring is replaced by an oxygen.
(§8) The results of comparative in vitro testing of Sertaconazole and these four Martin compounds are shown in the following Table II against 16 microorganisms. The reading time is the time interval from the time of inoculation to the time of measurement.

C. albicans 31 = assay: as above; assay type: cell-based; settings: Candida albicans, 31; YNB medium, reading time 48 h; SZ vs M4; read-out: MIC
Protocol: as §7, §8

C. albicans 15 = assay: as above; assay type: cell-based; settings: Candida albicans, 15, 48 h, Casitone medium, reading time 48 h; SZ vs M4
Protocol: as §7, §8

C. krusei 24 = assay: as above; assay type: cell-based; settings: Pichia kudriavzevii, 24, 48 h, reading time 48 h, SZ vs M4, read-out: MIC
Protocol: as §7, §8

C. guillermondii = assay: as above; assay type: cell-based; settings: 48 h, reading time 48 h, SZ vs M4, read-out: MIC
Protocol: as §7, §8

C. tropicalis 25 = assay: as above; assay type: cell-based; settings: Candida tropicalis, 25, 48 h, YNB medium, reading time 48 h; SZ vs M4
Protocol: as §7, §8

C. albicans 32 = assay: as above; assay type: cell-based; settings: Candida albicans, 32; YNB medium, reading time 48 h; SZ vs M4; read-out: MIC
Protocol: as §7, §8

C. albicans ATCC E-10231 = assay: as above; assay type: cell-based; settings: Candida albicans, ATCCE10231; Casitone medium, reading time 48 h; SZ vs M4; read-out: MIC
Protocol: as §7, §8

C. pseudotropicalis 21 = assay: as above; assay type: cell-based; settings: Kluyveromyces marxianus, 21; Sabouraud medium, reading time 48 h; SZ vs M4; read-out: MIC
Protocol: as §7, §8

C. stellatoidea 36232 = assay: as above; assay type: cell-based; settings: Candida albicans, 36232, 48 h, reading time 48 h, SZ vs M4
Protocol: as §7, §8

C. parapsilosis 19 = assay: as above; assay type: cell-based; settings: 19, 48 h, reading time 48 h, SZ vs M4
Protocol: as §7, §8

16 microorganisms = assay: Geometric mean of all MIC measurements, comparative in vitro testing; assay type: cell-based; settings: 48 h, SZ vs M4, reading time 48 h; read-out: Geometric means of MIC
Protocol: as §7, §8

Clc1ccc(COC(Cn2ccnc2)c2ccc(Cl)cc2Cl)c(Cl)c1 (stereo not shown) [Miconazole, reference compound]
dosage with significant hepatomegalias (rats; females): under 30 mg/kg | dosage with significant hepatomegalias (rats; males): under 60 mg/kg | MIC (Torulopsis glabrata): 1.1 µg/mL (≈ 2.64 µM) | LD50 ([1]; ip, intraperitoneal): ~600 mg/kg | LD50 ([1]; ip, intraperitoneal, males): 662 mg/kg | LD50 ([1]; po): ~2500 mg/kg | LD50 ([1]; po, males): 2560 mg/kg | LD50 ([1]; sc, subcutaneous): > 5000 mg/kg | LD50 ([1]; sc, subcutaneous, males): > 5000 mg/kg | LD50 ([2]; ip, intraperitoneal): 1180 mg/kg | LD50 ([2]; oral): 920 mg/kg | LD50 ([2]; sc, subcutaneous): > 5000 mg/kg | MIC (Candida albicans [3]; Candida albicans, 52 strains, read-out: Minimum Inhibitory Concentration): 10.7 µg/mL (≈ 25.7 µM) | MIC (Candida albicans [3]; a particular Candida albicans strain, read-out: MIC): 10.7 µg/mL (≈ 25.7 µM) | MIC (Candida tropicalis): 5.6 µg/mL (≈ 13.5 µM) | cases of contact dermatitis (cutaneous mycosis): 5 cases | mortality (Chronic toxicity in rats): 32% | animals healed (Candida albicans [4]): 12.5% | MIC [5]: 32 µg/mL (≈ 76.9 µM) | MIC (Dermatophytes, Others): 4 µg/mL (≈ 9.61 µM) | % microbiological healing ([6]; 18 days postinfection): 6% | Negative Cultures to Total Cultures ([6]; 18 days postinfection): 3/48 | % microbiological healing ([6]; 25 days postinfection): 28% | Negative Cultures to Total Cultures ([6]; 25 days postinfection): 13/48 | % microbiological healing ([6]; 32 days postinfection): 44% | Negative Cultures to Total Cultures ([6]; 32 days postinfection): 21/48 | proportion of animals cured ([6]; after 25 days, cream containing 2 % by weight): about 1/4 | effectiveness against Trichophyton rubrum (Trichophyton rubrum): 79% | MIC (Trichophyton rubrus): 0.3 µg/mL (≈ 0.721 µM) | MIC (Candida s.p.): 0.95 µg/mL (≈ 2.28 µM) | MIC (Gram-positive germs): 0.88 µg/mL (≈ 2.11 µM) | MIC (Microsporum canis): 2 µg/mL (≈ 4.81 µM) | NOAEL [7]: ~10 mg/kg | MIC [8]: 2.8 µg/mL (≈ 6.73 µM)

Clc1ccc(C(Cn2ccnc2)OCc2coc3cc(Cl)cc(Cl)c23)c(Cl)c1 (stereo not shown) [Martin compound 4, reference compound]
LD50 [9]: < 1000 mg/kg | MIC (C. albicans 14): 0.5 µg/mL (≈ 1.1 µM) | MIC (C. albicans 31): 8 µg/mL (≈ 17.5 µM) | MIC (C. albicans 15): 0.03 µg/mL (≈ 0.0658 µM) | MIC (C. krusei 24; Casitone medium): 0.5 µg/mL (≈ 1.1 µM) | MIC (C. krusei 24; YNB medium): 0.5 µg/mL (≈ 1.1 µM) | MIC (C. guillermondii; Casitone medium): 0.5 µg/mL (≈ 1.1 µM) | MIC (C. guillermondii; YNB medium): 0.5 µg/mL (≈ 1.1 µM) | MIC (C. tropicalis 25): 8 µg/mL (≈ 17.5 µM) | MIC (C. albicans 32): 8 µg/mL (≈ 17.5 µM) | MIC (C. albicans ATCC E-10231): 0.5 µg/mL (≈ 1.1 µM) | MIC (C. pseudotropicalis 21): 0.03 µg/mL (≈ 0.0658 µM) | MIC (C. stellatoidea 36232; Casitone medium): 0.06 µg/mL (≈ 0.132 µM) | MIC (C. stellatoidea 36232; Sabouraud medium): 0.5 µg/mL (≈ 1.1 µM) | MIC (C. stellatoidea 36232; YNB medium): 0.5 µg/mL (≈ 1.1 µM) | MIC (C. parapsilosis 19; Sabouraud medium): 0.5 µg/mL (≈ 1.1 µM) | MIC (C. parapsilosis 19; YNB medium): 0.5 µg/mL (≈ 1.1 µM) | MIC (16 microorganisms): 0.518 µg/mL (≈ 1.14 µM)

Source: patent US5135943A, “1H-imidazole derivative compounds and pharmaceutical compositions containing the same” (priority 1984, dated 1992)
